The values below come from publication PMC8490453, “PbrRALF2-elicited reactive oxygen species signaling is mediated by the PbrCrRLK1L13-PbrMPK18 module in pear pollen tubes” (Horticulture Research, 2021).

In the oligonucleotide strings, read from the 5' end, every base follows the letter of its sugar. An asterisk marks phosphorothioate; unmarked linkages are phosphodiester. Other units and linkages are bracketed, terminal groups are in braces. A string of capitals states the bases alone. d = 2'-deoxy (DNA)

One data set concerns PbrRALF7. Description: Expression of PbrRALF7 after PbrRALF2-ODN treatment. It is filed as cell-based, pear. How it is done: (§1) The MIQE guidelines were followed for quantitative RT-PCR (qRT–PCR) experiments. The Plant Total RNA Isolation Kit (FOREGENE, Chengdu, China) was used to extract total RNA, and DNase I was used to eliminate genomic DNA contaminants. A RevertAid First Strand cDNA Synthesis Kit was used to reverse transcription purified total RNA (3 μg) (Thermo Scientific, USA). Then, using SYBR Green Master Mix on a LightCycler® 480 II (Roche, Switzerland), quantitative PCR (qPCR) was performed on 20-μl samples according to the manufacturer’s instructions. The thermal cycle was performed at 95 °C for 5 min, followed by 45 cycles of 15 s at 95 °C and 15 s at 60 °C. The pear TUBULIN gene was used as an internal control, and relative expression levels were evaluated using the 2CT2 − △△CT method, as previously described. The primers for RT-PCR and qRT–PCR of PbrRALFs, PbrCrRLK1L13, PbrMPK18, and PbrTUB in pear are presented in Supplementary Tables S5 and S6, respectively.
(§2) Twenty-mer phosphorothioate oligonucleotides against PbrRALF2, PbrCrRLK1L13, PbrMPK18, and their sense controls (s-ODN) were synthesized with three 5′- and 3′-phosphorothioate-modified bases, and a scrambled mismatch sequence was used as a control. […] More than 35 pollen tubes were measured in each treatment, and the experiments were repeated at least three times. […]

The next data set relates to PbrRALF11. Kind of data set: Expression of PbrRALF11 after PbrRALF2-ODN treatment. It is filed as cell-based, pear. How it is done: as §1, §2
A further data set relates to BAK1. The following applies: Arabidopsis; cited from earlier work. The text has this:
(§3) PbrCrRLK1L13 interacts with its PbrRALF2 ligand via exJM at the plasma membrane (Fig. 2B), similar to the region where LORELEI and LLG1 physically interact with FER[42], thus implying a potentially conserved role for the exJM region of CrRLK1Ls. […] Such phosphorylation by peptides has similarly been observed for multiple receptor-like kin ...

For another data set, the system named is FER. The following applies: Arabidopsis; cited from earlier work.
From the text: as §3

For data set [1], the target named is GST-PbrCrRLK1L13-ECD (pear (Pyrus bretschneideri)). Description: ITC; MicroCal ITC200, 25 °C; 200 μM PbrRALF2 in the syringe titrated into 20 μM PbrCrRLK1L13 extracellular domain; 50 mM phosphate pH 7.4, 150 mM NaCl; one set of sites model; apparent. (In ITC the heat of successive injections is recorded.)
The target is the same in data set [2]. Description: SPR; Biacore T200, 25 °C; PbrCrRLK1L13 immobilised on a CM5 chip by amine coupling; running buffer 10 mM HEPES, 150 mM NaCl, 3 mM EDTA, pH 7.4; PbrRALF2 injected at 15, 30, 60 and 120 nM; steady-state 1:1 model; apparent. (In general: In SPR one partner is held on a chip, and binding of the other changes the refractive index at the surface.)
For data set [3] the target is unchanged.

Take “PbrRALF2-ODN-1: antisense ODN GTGATGGCGCTGCAGCCGCGG (antisense dG*dT*dG*dAdTdGdGdCdGdCdTdGdCdAdGdCdCdG*dC*dG*dG)”: in the data set on PbrRALF7, the “expression level of PbrRALF7” value is “not affected”. The “expression level of PbrRALF11” value with PbrRALF11 is “not affected”.

On to “PbrRALF2-ODN-2: antisense ODN GCGCACCGTAGCTGATGT (antisense dG*dC*dG*dCdAdCdCdGdTdAdGdCdTdGdA*dT*dG*dT)”, for which the “expression level of PbrRALF7” value in the data set on PbrRALF7 is “not affected”. Further, the “expression level of PbrRALF11” value with PbrRALF11 is recorded as “not affected”.

In the case of “RALF1: Arabidopsis RALF1, ligand of FER (ATTKYISYQSLKRNSVPCSRRGASYYNCQNGAQANPYSRGCSKIARCRS; UniProt Q9SRY3 72-120, looked up)”, the BAK1 phosphorylation entry in the data set on BAK1 was “BAK1[41] phosphorylation”. Further, the FER phosphorylation entry with FER is given as “triggers FER”.

In the case of “recombinant PbrRALF2 (His-PbrRALF fusion protein from pCold-TF) (ligand)”, the Kd in data set [1] was found to be 512 nM; in data set [2], 73 nM. In data set [3], this substance gave an IC50 of inhibition of pear pollen tube growth by E. coli-expressed PbrRALF2 (0.025-1 μM) of 92 nM.
